Measured values: patent publication US10077237B2 (Sanofi, priority 2013, dated 2018)
Structures can show the parent of a compound that is named as a salt.

Biological target: T1, recombinant human AMPK complex, containing α2β1γ2 (Homo sapiens, UniProt P54646+Q9Y478)
T1 construct: hsAMPKα2-552-His, hsAMPKβ1-2-270 and hsAMPKγ-2-569 respectively; hsAMPKβ1-2-270; hsAMPKγ-2-569; His (C); made in house; host or cells: Spodoptera frugiperda Sf21 (baculovirus)
Experiment: AMPK in vitro activation assay (HTRF)
Type: biochemical
Settings: for EC50: HTRF, recombinant human α2β1γ2 AMPK, 200 μM ATP, biotinylated ACC-CREBp peptide, repeat determinations on separate lines; for Emax: potentiation of AMPK activity as percent over the basal signal (without compound)
In short: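 Sf21-expressed, Ni-NTA partially purified α2β1γ2 complex preincubated 30 min at room temperature with compound (0.5% DMSO) in HEPES pH 7.0, MgCl2, DTT. Reaction was started with a solution holding 200 μM ATP and 2 or 0.08 μM biotinylated ACC-CREBp peptide, run 45 min at 37° C, then read by HTRF with anti-pS133-CREB; EC50 from percent over basal.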

T1 sequence (P54646 2-552): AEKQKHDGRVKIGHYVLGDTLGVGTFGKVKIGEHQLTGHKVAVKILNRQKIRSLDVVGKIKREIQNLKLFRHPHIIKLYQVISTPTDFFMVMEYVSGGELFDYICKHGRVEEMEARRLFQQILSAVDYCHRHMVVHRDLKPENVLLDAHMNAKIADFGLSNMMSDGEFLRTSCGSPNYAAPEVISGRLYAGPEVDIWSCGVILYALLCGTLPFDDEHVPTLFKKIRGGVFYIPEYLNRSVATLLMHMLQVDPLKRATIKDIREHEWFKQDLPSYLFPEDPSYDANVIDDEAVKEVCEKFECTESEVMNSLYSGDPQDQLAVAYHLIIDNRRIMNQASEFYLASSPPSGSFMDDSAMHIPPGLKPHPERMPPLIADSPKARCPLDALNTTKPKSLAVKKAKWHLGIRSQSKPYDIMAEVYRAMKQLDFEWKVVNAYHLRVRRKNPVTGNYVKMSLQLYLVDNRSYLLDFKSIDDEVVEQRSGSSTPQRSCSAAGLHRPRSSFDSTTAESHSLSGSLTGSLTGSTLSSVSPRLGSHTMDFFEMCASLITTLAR
T1 sequence (Q9Y478 2-270): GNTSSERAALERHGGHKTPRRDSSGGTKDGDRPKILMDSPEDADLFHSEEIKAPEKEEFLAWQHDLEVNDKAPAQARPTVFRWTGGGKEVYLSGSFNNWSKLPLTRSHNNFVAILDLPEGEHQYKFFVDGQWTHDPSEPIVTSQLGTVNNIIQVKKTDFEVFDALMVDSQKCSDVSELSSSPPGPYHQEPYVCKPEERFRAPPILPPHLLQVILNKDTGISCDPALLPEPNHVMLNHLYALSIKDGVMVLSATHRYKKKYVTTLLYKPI
T1 sequence (Q9UGJ0 2-569 partner limits assumed): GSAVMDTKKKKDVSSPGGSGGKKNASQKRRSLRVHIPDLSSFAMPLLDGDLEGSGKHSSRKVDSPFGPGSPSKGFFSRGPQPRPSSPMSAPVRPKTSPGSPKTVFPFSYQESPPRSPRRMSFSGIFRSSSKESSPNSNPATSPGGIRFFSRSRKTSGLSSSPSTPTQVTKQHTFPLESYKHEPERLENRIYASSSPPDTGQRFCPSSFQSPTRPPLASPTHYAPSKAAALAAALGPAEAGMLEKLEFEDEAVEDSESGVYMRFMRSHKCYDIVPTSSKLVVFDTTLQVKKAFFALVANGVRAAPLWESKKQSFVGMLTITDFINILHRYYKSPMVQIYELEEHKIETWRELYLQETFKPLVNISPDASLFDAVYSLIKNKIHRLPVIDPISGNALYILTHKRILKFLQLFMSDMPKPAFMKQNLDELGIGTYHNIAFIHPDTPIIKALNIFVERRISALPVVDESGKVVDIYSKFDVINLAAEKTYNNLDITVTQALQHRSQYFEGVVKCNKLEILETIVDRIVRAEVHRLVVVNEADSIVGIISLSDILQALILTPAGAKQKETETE

| SMILES | EC50 [nM] | Emax [%] |
| --- | --- | --- |
| COc1cc(F)c(C(O)=C2C(=O)Nc3cc(Cl)c(-c4ccc(C5CC(O)C5)cc4)cc32)cc1F (centres unmarked) [Compound 159, 6-chloro-3-[(2,5-difluoro-4-methoxy-phenyl)hydroxy-methylene]-5-[4-(3-hydroxycyclobutyl)phenyl]indolin-2-one] | 10 | 180 |
| O=C1Nc2cc(F)c(-c3ccc(C4(CO)CC4)cc3)c(F)c2C1=C(O)c1cc(C2CC2)no1 [Compound 120, 3-[(3-cyclopropylisoxazol-5-yl)hydroxy-methylene]-4,6-difluoro-5-[4-[1-(hydroxymethyl)cyclopropyl]phenyl]indolin-2-one] | 0.2 | 169 |
| CN1CCC(c2ccc(-c3cc4c(cc3Cl)NC(=O)C4=C(O)c3cc(F)cc(F)c3)cc2)C1 (centres unmarked) [Compound 150, 6-chloro-3-[(3,5-difluorophenyl)hydroxy-methylene]-5-[4-(1-methylpyrrolidin-3-yl)phenyl]indolin-2-one hydrochloride] | 14 | 137 |
| O=C1Nc2cc(F)c(-c3ccc(C4(CO)CC4)cc3)cc2C1=C(O)c1cc(C2CC2)no1 [Compound 119, 3-[(3-cyclopropylisoxazol-5-yl)hydroxy-methylene]6-fluoro-5-[4-[1-(hydroxymethyl)cyclopropyl]phenyl]indolin-2-one] | 0.6 | 133 |
| COc1cc(C(O)=C2C(=O)Nc3cc(Cl)c(-c4ccc(OCc5cccnc5)cc4)cc32)on1 [Compound 100, 6-chloro-3-[hydroxy-(3-methoxyisoxazol-5-yl)methylene]-5-[4-(3-pyridylmethoxy)phenyl]indolin-2-one] | 36 | 159 |
| COCCOc1ccc(-c2cc3c(cc2Cl)NC(=O)C3=C(O)c2cc(C)no2)cc1 [Compound 103, 6-chloro-3-[hydroxy-(3-methylisoxazol-5-yl)methylene]-5-[4-(2-methoxyethoxy)phenyl]indolin-2-one] | 16 | 114 |
| Cc1cc(C(O)=C2C(=O)Nc3cc(Cl)c(-c4ccc(OC(F)(F)F)cc4)cc32)on1 [Compound 58, 6-Chloro-3-[1-hydroxy-1-(3-methyl-isoxazol-5-yl)-methylidene]-5-(4-trifluoromethoxy-phenyl)-1,3-dihydro-indol-2-one] | 1400 | 212 |
| COc1cc(C(O)=C2C(=O)Nc3cc(Cl)c(-c4ccc(N(C)C)nc4)cc32)on1 [Compound 146, 6-chloro-5-[6-(dimethylamino)-3-pyridyl]-3-[hydroxy-(3-methoxyisoxazol-5-yl)methylene]indolin-2-one] | 88 | 278 |

Results, then the compound that gave them:

| EC50 [nM] | Emax [%] | SMILES |
| --- | --- | --- |
| 1400 | 57 | O=C1Nc2cc(Cl)c(-c3ccc(-c4ccccc4)cc3)cc2C1=C(O)c1ccccc1 [Compound 7, 5-Biphenyl-4-yl-6-chloro-3-[1-hydroxy-1-phenyl-methylidene]-1,3-dihydro-indol-2-one] |
| 16 | 271 | COc1cc(C(O)=C2C(=O)Nc3cc(Cl)c(-c4ccc(N5CCCC5)cc4)cc32)on1 [Compound 137, 6-chloro-3-[hydroxy-(3-methoxyisoxazol-5-yl)methylene]-5-(4-pyrrolidin-1-ylphenyl)indolin-2-one] |
| 21 | 227 | COc1ccc(C(O)=C2C(=O)Nc3cc(Cl)c(-c4ccc(N5CCOCC5)cc4)cc32)nc1 [Compound 140, 6-chloro-3-[hydroxy-(5-methoxy-2-pyridyl)methylene]-5-(4-morpholinophenyl)indolin-2-one] |
| 15 | 97 | O=C1Nc2cc(Cl)c(-c3ccc(N4CCOCC4)cc3)cc2C1=C(O)c1cccc(C(=O)O)c1 [Compound 4, 3-{[6-Chloro-5-(4-morpholin-4-yl-phenyl)-2-oxo-1,2-dihydro-indolylidene]-hydroxy-methyl}-benzoic acid] |
| 2 | 122 | O=C1Nc2cc(Cl)c(-c3ccc(N4CCOCC4)cc3)cc2C1=C(O)c1cc(O)no1 [Compound 102, 6-chloro-3-[hydroxy-(3-hydroxyisoxazol-5-yl)methylene]-5-(4-morpholinophenyl)indolin-2-one] |
